The text below walks through data of patent US20240043386A1, “Modulators of the Cystic Fibrosis Transmembrane Conductance Regulator Protein and Methods of Use” (AbbVie Global Enterprises Ltd., priority 2021, published 2024).

One test concerns the target T1, F508del/F508del CFTR (Homo sapiens, UniProt P13569, DEL508-508).
T1 construct: cells isolated from CF patients with the homozygous mutation; endogenous in cells; host or cells: primary human bronchial epithelial (hBE) cells from CF patients homozygous for F508del
Description: Trans-Epithelial Current Clamp (TECC) assay using primary human bronchial epithelial cells. The settings on record: for Emax (% Dual): maximum percent activity relative to positive control (co-corrector 0.15 μM + potentiator 0.45 μM = 100%), primary hBE cells F508del/F508del; for pEC50: primary hBE cells homozygous F508del/F508del, test C2 corrector with co-corrector and potentiator, 18-24 hours at 37° C., equivalent CFTR current (IEQ)/AUC. The test is classed as cell-based. An excerpt: A cell-based assay was developed using the primary human bronchial epithelial cells (hBE cells) with F508del/F508del CFTR and other mutations.
Primary human bronchial epithelial (hBE) cells from CFTR patients with homozygous F508del/F508del mutation were expanded from 1×10^6 to 250×10^6 cells (Neuberger, T et al., 2011, Methods Mol Biol 741:39-54). For this purpose, cells isolated from CF patients with the homozygous mutation, procured from the CF center tissue procurement and cell culture core at the Marsico Lung Institute at UNC (Randell), the Cystic Fibrosis translational research center at McGill University (University), and Rosalind Franklin University Medical School (RFUMS) were seeded onto 24 well Corning (Cat #3378) filter plates that were coated with 3T3 conditioned media and grown at an air-liquid interface for 35 days using an Ultroser® G supplemented differentiation media. All the primary human bronchial epithelial cells were collected in accordance with institutional review board approval protocols. Apical surface mucus was removed 72 hours before the experiment by incubating the apical surface of the cells for 30 minutes with 3 mM dithiothreitol (DTT) prepared in Dulbecco's phosphate buffered saline (DPBS) with Ca^2+ and Mg^2+. This was followed with aspiration of the mucus from the apical surface along with DPBS. The apical surface was re-washed with phosphate buffered saline (PBS) incubated for 30 minutes followed with aspiration. These hBE cells were then incubated with the desired concentrations of the test C2 corrector compounds along with co-corrector, 4-[(2R,4R)-4-({[1-(2,2-difluoro-1,3-benzodioxol-5-yl)cyclopropyl]carbonyl}amino)-7-(difluoromethoxy)-3,4-dihydro-2H-chromen-2-yl]benzoic acid and potentiator, (5-{3-amino-5-[4-(trifluoromethoxy)benzene-1-sulfonyl]pyridin-2-yl}-1,3,4-oxadiazol-2-yl)methanol, for 18-24 hours at 37° C., 5% CO2. The desired concentrations of the correctors and potentiator compounds were prepared from the 10 mM stocks in differentiation media and were always applied on the basolateral side of the epithelial cells. We also used an assay format where a fixed concentration of potentiator was added chronically along with the corrector compounds. This chronic treatment with the potentiator helped eliminate any interaction that might happen with CFTR modulators (correctors and potentiators) and thereby determined the true efficacy of the modulator combinations reflective of clinical relevance.
The assay uses a Transepithelial Current Clamp (TECC) (Vu, C B et al., 2017; J Med Chem 60:458-473) instrument that can measure the functionality of the mutated channel by measuring the equivalent CFTR current (IEQ) generated by the polarized primary epithelial cells. We used a TECC-24 with a 24-channel electrode manifold allowing for the simultaneous measurement of the transepithelial voltage, VT, and transepithelial resistance, RT, under current clamp conditions, from 24 filters using a 24 well Costar filter plate. The design of the filters in the 24 well filter plates was exactly the same as the design of an individual Transwell filter used in the classical Ussing Chamber with a surface area of 0.33 cm^2. Each measured VT values were corrected for the electrode offset potential measured using buffer alone in a separate plate, and each measured RT values were then corrected for the combined solution series and empty filter resistances. The corrected VT and RT values were then used to calculate the equivalent current, IEQ using Ohm's law (IEQ=VT/RT). The area under the curve (AUC) for the time period between the forskolin peak IEQ response and at the time of bumetanide addition was also calculated using a one-third trapezoid method, in addition to calculating the IEQ. The assay was run in a 24-well format and all 24-wells were measured at the same time point giving a higher throughput for this assay. […]

Another test addresses T2, F508delCFTR (Homo sapiens, UniProt P13569, DEL508-508).
T2 construct: expressed in transfected cells; host or cells: CFBE41o- human lung-derived epithelial cell line, doxycycline-inducible expression
Put plainly: Cell Surface Expression-Horse Radish Peroxidase (CSE-HRP) assay in CFBE41o-F508delCFTR-HRP cells. It is filed as cell-based. The note with it: for pEC50: CFBE41o-F508delCFTR-HRP cells, 18-24 hours at 33° C., luminescence. On the procedure: A cellular assay for measuring the F508delCFTR cell surface expression after correction with test compounds either without or with a co-corrector (2 μM of 3-[(2R,4R)-4-({[1-(2,2-difluoro-1,3-benzodioxol-5-yl)cyclopropyl]carbonyl}amino)-7-methoxy-3,4-dihydro-2H-chromen-2-yl]benzoic acid), was developed in human lung derived epithelial cell line (CFBE4lo-) (Veit G et al, (2012) Mol Biol Cell. 23(21): 4188-4202). The development was achieved by expressing the F508delCFTR mutation along with a horseradish peroxidase (HRP) in the fourth exofacial loop, and then measuring the HRP activity using luminescence readout from these cells, CFBE4lo-F508delCFTR-HRP, that were incubated overnight with the test corrector compounds, either without or with the co-corrector. For this primary assay, the CFBE4lo-F508delCFTR-HRP cells were plated in 384-well plates (Greiner Bio-one; Cat 781080) at 4,000 cells/well along with 0.5 μg/mL doxycycline to induce the F508delCFTR-RP expression and further incubated at 37° C., 5% CO2 for 68-72 hours. The test compounds were then added either without or with a co-corrector at the required concentrations and further incubated for 18-24 hours at 33° C. The highest concentration tested was 20 μM or 30 μM (GI-1 to GIII-36) with an 8-point concentration response curve using a 3-fold dilution in both the test compound without or with the co-corrector. Three replicate plates were run to determine one EC50. All plates contained negative controls (dimethyl sulfoxide, DMSO) and positive control (2 μM or 3 μM (GI-1 to GIII-36) of 3-[(2R,4R)-4-({[1-(2,2-difluoro-1,3-benzodioxol-5-yl)cyclopropyl]carbonyl}amino)-7-methoxy-3,4-dihydro-2H-chromen-2-yl]benzoic acid) as well as on-plate concentration response of the positive control. Post incubation, the plates were washed 5× times with Dulbecco's phosphate buffered saline (DPBS), followed by the addition of the HRP substrate, luminol (50 μL), and measuring the HRP activity using luminescence readout on EnVision® Multilabel Plate Reader (Perkin Elmer; product number 2104-0010). The raw counts from the experiment were analyzed using Accelrys® Assay Explorer v3.3.
Z′ greater than 0.5 was used as passing quality control criteria for the plates. The Z′ is defined as:
1−[3*SDPositive Control+3*SDNegative Control/Absolute (MeanPositive Control−MeanNegative Control)]
The % activity measured at each of the 8 test concentrations of the test compound added either without or with a co-corrector (2 μM or 3 μM (GI-1 to GIII-36) of 3-[(2R,4R)-4-({[1-(2,2-difluoro-1,3-benzodioxol-5-yl)cyclopropyl]carbonyl}amino)-7-methoxy-3,4-dihydro-2H-chromen-2-yl]benzoic acid) was normalized to the on-plate positive control using the following formulae:
% activity (Test compound without co-corrector)=[(test compound without co-corrector response−DMSO response)/(positive control response−DMSO response)]*100
% activity (Test compound with co-corrector)=[(test compound with co-corrector response−DMSO response)/(positive control response−DMSO response)]*100
The maximum % activity achieved for the test compound either without or with a co-corrector at any tested concentration is presented in Table 3 along with the respective EC50's calculated using the following general sigmoidal curve with variable Hill slope equation (described as Model 42 in the Accelrys® Assay Explorer v3.3 software):
General sigmoidal curve with concentration, response, top, bottom, EC50 and Hill slope. This model describes a sigmoidal curve with an adjustable baseline, a. The equation can be used to fit curves where response is either increasing or decreasing with respect to the independent variable, “x”.

Setting [1] is: without co-corrector, read-out: EC50 (without co-corrector).
Setting [2] is: with co-corrector (2 μM), read-out: EC50 (with co-corrector).
[3] abbreviates: without co-corrector, normalized to on-plate positive control corrector (2 μM).

pEC50: −log10 of the molar value. Like-named read-outs stand apart in the source and are kept apart here. Some results are limits rather than exact numbers.

T2 sequence (P13569 with tags, fused parts or gaps DEL508-508): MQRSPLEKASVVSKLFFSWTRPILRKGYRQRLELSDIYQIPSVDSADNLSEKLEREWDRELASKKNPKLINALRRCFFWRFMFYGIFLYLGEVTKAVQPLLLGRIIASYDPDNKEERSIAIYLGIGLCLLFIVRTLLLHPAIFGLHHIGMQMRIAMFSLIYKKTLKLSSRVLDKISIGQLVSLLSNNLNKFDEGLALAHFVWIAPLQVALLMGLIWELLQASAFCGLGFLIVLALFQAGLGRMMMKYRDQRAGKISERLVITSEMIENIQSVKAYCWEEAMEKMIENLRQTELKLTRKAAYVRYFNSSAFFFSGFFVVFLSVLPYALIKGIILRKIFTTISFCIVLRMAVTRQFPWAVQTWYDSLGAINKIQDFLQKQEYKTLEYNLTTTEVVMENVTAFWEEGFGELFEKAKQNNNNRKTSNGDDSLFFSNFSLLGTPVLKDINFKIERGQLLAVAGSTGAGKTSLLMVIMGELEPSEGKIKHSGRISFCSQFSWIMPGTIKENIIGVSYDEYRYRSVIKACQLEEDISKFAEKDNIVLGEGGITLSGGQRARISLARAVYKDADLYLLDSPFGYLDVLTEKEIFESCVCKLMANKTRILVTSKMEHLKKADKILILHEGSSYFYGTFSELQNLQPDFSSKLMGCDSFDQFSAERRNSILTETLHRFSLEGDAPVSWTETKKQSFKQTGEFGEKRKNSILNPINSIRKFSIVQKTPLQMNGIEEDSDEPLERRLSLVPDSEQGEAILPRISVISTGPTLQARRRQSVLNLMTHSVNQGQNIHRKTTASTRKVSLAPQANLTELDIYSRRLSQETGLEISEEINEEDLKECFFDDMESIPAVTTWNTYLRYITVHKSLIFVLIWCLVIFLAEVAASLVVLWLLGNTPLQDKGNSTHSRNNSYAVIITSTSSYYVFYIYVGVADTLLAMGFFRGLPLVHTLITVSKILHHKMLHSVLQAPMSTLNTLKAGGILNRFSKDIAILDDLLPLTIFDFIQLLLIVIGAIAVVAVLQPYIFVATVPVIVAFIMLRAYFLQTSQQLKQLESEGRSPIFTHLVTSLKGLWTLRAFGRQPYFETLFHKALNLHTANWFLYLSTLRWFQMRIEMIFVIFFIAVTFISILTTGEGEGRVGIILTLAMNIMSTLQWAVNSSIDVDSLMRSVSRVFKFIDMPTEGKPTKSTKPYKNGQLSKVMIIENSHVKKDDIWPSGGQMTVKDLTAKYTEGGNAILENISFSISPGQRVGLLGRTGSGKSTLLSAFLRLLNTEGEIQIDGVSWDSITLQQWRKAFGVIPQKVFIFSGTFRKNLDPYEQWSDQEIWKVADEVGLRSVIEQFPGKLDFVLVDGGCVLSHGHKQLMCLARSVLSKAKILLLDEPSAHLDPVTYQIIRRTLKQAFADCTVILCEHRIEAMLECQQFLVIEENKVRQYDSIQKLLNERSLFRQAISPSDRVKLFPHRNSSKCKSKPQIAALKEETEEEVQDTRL
T1 sequence (P13569 with tags, fused parts or gaps DEL508-508): as above

Take `COc1ccc([C@@H]2C[C@]2(C(=O)NS(=O)(=O)c2cccc3nc(C)ccc23)c2cc(C)ccc2OC)cc1` (racemic) [Example 9, rac-(1r,2s)-1-(2-methoxy-5-methylphenyl)-2-(4-methoxyphenyl)-N-(2-methylquinoline-5-sulfonyl)cyclopropane-1-carboxamide]: at F508del/F508del CFTR, the “Emax (% Dual)” value was 381 % Dual and the negative-log EC50 (pEC50) (as a rule, the negative decadic logarithm of the EC50, by convention in mol/L) is 8.96. Besides, the pEC50 at F508delCFTR (setting [1]) is 5.78.

For the molecule `COc1ccc(C)cc1[C@]1(C(=O)NS(=O)(=O)c2cccc3nc(C)ccc23)C[C@@H]1c1cccc(C(F)(F)F)c1` (racemic) [Example 12, rac-(1r,2s)-1-(2-methoxy-5-methylphenyl)-N-(2-methylquinoline-5-sulfonyl)-2-[3-(trifluoromethyl)phenyl]cyclopropane-1-carboxamide], the “Emax (% Dual)” value on F508del/F508del CFTR is recorded as 407 % Dual. In addition, the negative logarithm of the EC50 (pEC50) on F508del/F508del CFTR was 9.29; on F508delCFTR (setting [2]), 6.49; at F508delCFTR (setting [1]), 6.32.

Regarding `COc1cccc([C@@H]2C[C@]2(C(=O)NS(=O)(=O)c2cccc3nc(C)ccc23)c2cc(C)ccc2OC)c1` (racemic) [Example 15, rac-(1r,2s)-1-(2-methoxy-5-methylphenyl)-2-(3-methoxyphenyl)-N-(2-methylquinoline-5-sulfonyl)cyclopropane-1-carboxamide], the “Emax (% Dual)” value on F508del/F508del CFTR was found to be 308 % Dual. For the same molecule, the negative-log EC50 (pEC50) was 9.08 on F508del/F508del CFTR, 6.16 at F508delCFTR (setting [2]) and 6.00 at F508delCFTR (setting [1]).

On to `COc1ccc(C)cc1[C@@]1(C(=O)NS(=O)(=O)c2cccc3nc(C)ccc23)C[C@H]1c1ccccc1F` (racemic) [Example 22, rac-(1r,2r)-2-(2-fluorophenyl)-1-(2-methoxy-5-methylphenyl)-N-(2-methylquinoline-5-sulfonyl)cyclopropane-1-carboxamide], for which the “Emax (% Dual)” value at F508del/F508del CFTR is given as 268 % Dual. The values for the negative logarithm of the EC50 (pEC50) on F508del/F508del CFTR, at F508delCFTR (setting [2]) and at F508delCFTR (setting [1]) were 8.05, 6.07 and 6.03, respectively.

Take `COc1ccc(C)cc1[C@]1(C(=O)NS(=O)(=O)c2cccc3nc(C)ccc23)C[C@@H]1c1ccccc1C(F)(F)F` (racemic) [Example 29, rac-(1r,2s)-1-(2-methoxy-5-methylphenyl)-N-(2-methylquinoline-5-sulfonyl)-2-[2-(trifluoromethyl)phenyl]cyclopropane-1-carboxamide]: at F508del/F508del CFTR, the “Emax (% Dual)” value is recorded as 241 % Dual. Moreover, the pEC50 is 8.11 on F508del/F508del CFTR, 6.79 at F508delCFTR (setting [2]) and 6.56 on F508delCFTR (setting [1]). Also, on F508delCFTR (setting [3]), the “Maximum % activity (without co-corrector)” value is 666%.

As for `COc1ccc(C)cc1[C@@]1(C(=O)NS(=O)(=O)c2cccc3nc(C)ccc23)C[C@H]1c1cncc(C)n1` (racemic) [Example 35, rac-(1r,2r)-1-(2-methoxy-5-methylphenyl)-2-(6-methylpyrazin-2-yl)-N-(2-methylquinoline-5-sulfonyl)cyclopropane-1-carboxamide], the “Emax (% Dual)” value on F508del/F508del CFTR turned out to be 331 % Dual. The values for the pEC50 on F508del/F508del CFTR, at F508delCFTR (setting [2]) and at F508delCFTR (setting [1]) were 7.32, 5.91 and 5.77, respectively. In addition, the “Maximum % activity (without co-corrector)” value on F508delCFTR (setting [3]) was 582%.

As for `COc1ncc([C@@H]2C[C@]2(C(=O)NS(=O)(=O)c2cccc3nc(C)ccc23)c2cc(C)ccc2OC)cn1` (racemic) [Example 36, rac-(1r,2s)-1-(2-methoxy-5-methylphenyl)-2-(2-methoxypyrimidin-5-yl)-N-(2-methylquinoline-5-sulfonyl)cyclopropane-1-carboxamide], the “Emax (% Dual)” value at F508del/F508del CFTR came out at 173 % Dual. Moreover, the pEC50 on F508del/F508del CFTR is under 6.52; on F508delCFTR (setting [2]), 5.61; on F508delCFTR (setting [1]) it was 5.36. For the same molecule, the “Maximum % activity (with co-corrector)” value at F508delCFTR (with co-corrector (2 μM), normalized to on-plate positive control corrector (2 μM)) stood at 666%. The “Maximum % activity (without co-corrector)” value on F508delCFTR (setting [3]) is 248%.

Regarding `COc1cnc([C@@H]2C[C@]2(C(=O)NS(=O)(=O)c2cccc3nc(C)ccc23)c2cc(C)ccc2OC)cn1` (racemic) [Example 39, rac-(1r,2r)-1-(2-methoxy-5-methylphenyl)-2-(5-methoxypyrazin-2-yl)-N-(2-methylquinoline-5-sulfonyl)cyclopropane-1-carboxamide], at F508del/F508del CFTR, the “Emax (% Dual)” value is 317 % Dual. Further, the figures for the pEC50 at F508del/F508del CFTR, at F508delCFTR (setting [2]) and at F508delCFTR (setting [1]) were 7.74, 6.19 and 5.91, respectively. Moreover, the “Maximum % activity (without co-corrector)” value at F508delCFTR (setting [3]) was 563%.
